Here are results for 1 compound from US20050272748A1, “2-Mercapto-substituted triazolopyrimidines, methods for the production thereof, the use of the same for controlling patogenic fungi, and agents containing said compounds” (BASF Aktiengesellschaft, priority 2002, published 2005).

SMILES strings stand for the structures.

For the assay, the system named is Botrytis cinerea. Description: Activity against gray mold on bell pepper leaves, protective application. The format is in vivo. The following applies: 250 ppm active compound; bell pepper seedlings sprayed to runoff, inoculated next day, evaluated after 5 days; untreated plants 45% infected. The protocol: The active compounds were prepared as a 10% strength emulsion in a mixture of 70% by weight of cyclohexanone, 20% by weight of Nekanil®) LN (Lutensol®) AP6, wetting agent having emulsifying and dispersing action based on ethoxylated alkylphenols) and 10% by weight of Wettol® EM (nonionic emulsifier based on ethoxylated castor oil) and diluted with water to the desired concentration. Use example: Activity against gray mold, caused by Botiytis cinerea, on bell pepper leaves, protective application Bell pepper seedlings of the cultivar “Neusiedler Ideal Elite” were, after 4 to 5 leaves were well-developed, sprayed to runoff-point with an aqueous suspension having the concentration of active compound stated below. The next day, the treated plants were inoculated with a spore suspension of Botrytis cinerea, which contained 1.7×10^6 spores/ml in an aqueous 2% strength biomalt solution. […] After 5 days, the extent of the fungal infection on the leaves could be determined visually in %. […] The efficacy (E) is calculated as follows, using Abbot's formula: E=(1−α/β)·100 • α corresponds to the fungal infection of the treated plants in % and • β corresponds to the fungal infection of the untreated (control) plants in % At an efficacy of 0, the degree of infection of the treated plants corresponds to that of the untreated control plants; at an efficacy of 100, the treated plants were not infected.

As to `CC1CCN(c2c(-c3c(F)cc(F)cc3F)c(Cl)nc3nc(S)nn23)CC1` [Example 9, 5-chloro-7-(4-methylpiperidin-1-yl)-2-mercapto-6-(2,4,6-trifluorophenyl)-[1,2,4]-triazolo[1,5-a]pyrimidine], the “efficacy (Abbot's formula)” value amounted to 56%.
